According to the CombiSolv-Exp solvation set (Vermeire and Green 2021):

Test: solvent given as SMILES

C1COCCO1
Conditions	solvation free energy, 298 K [kcal/mol]
in Brc1ccccc1	-5.08
in C1CCCCC1	-4.15
in C1CCOC1	-5.11
in CC1COC(=O)O1	-4.98
in CC#N	-5.28
in CC(=O)N(C)C	-4.98
in CC(=O)O	-5.82
in CC(=O)c1ccccc1	-5.03
in CC(C)(C)Cl	-4.78
in CC(C)(C)O	-4.79
in CC(C)=O	-5.07
in CC(C)CC(C)(C)C	-4.01
in CC(C)CCCC(C)CCCC(C)CCCCC(C)CCCC(C)CCCC(C)C	-3.8
in CC(C)CCO	-4.54
in CC(C)O	-4.55
in CC(C)OC(C)C	-4.39
in CCBr	-5.21
in CCC(C)=O	-5.01
in CCC(C)Cl	-4.7
in CCCC#N	-5.03
in CCCCC	-4.02
in CCCCCC	-4.06
in CCCCCCC	-4.01
in CCCCCCCCCC	-3.97
in CCCCCCCCCCCCCCCC	-3.81
in CCCCCl	-4.8
in CCCCN	-4.93
in CCCCN(C=O)CCCC	-4.58
in CCCCO	-4.56
in CCCCOCCCC	-4.31
in CCCO	-4.51
in CCN(CC)CC	-4.35
in CCO	-4.68
in CCOC(C)=O	-5.01
in CCOCC	-4.62
in CCOCCOCCOCC	-4.77
in CCOP(=O)(OCC)OCC	-4.63
in CCOc1ccccc1	-4.85
in CN1CCCC1=O	-4.97
in CN1CCN(C)C1=O	-4.62
in CN(C)C=O	-5.06
in CN(C)P(=O)(N(C)C)N(C)C	-4.82
in CNC(C)=O	-4.67
in CNC=O	-4.87
in CO	-4.9
in COCCO	-4.92
in COc1ccccc1	-5.06
in CS(C)=O	-4.84
in Cc1ccc(C)cc1	-4.8
in Cc1cccc(C)n1	-4.91
in Cc1cccc(O)c1	-6.82
in Cc1ccccc1	-4.91
in Cc1ccccn1	-5.02
in ClC(Cl)(Cl)Cl	-4.95
in ClC(Cl)Cl	-6.11
in Clc1ccccc1	-5.07
in FC(F)(F)C(F)(F)C(F)(F)C(F)(F)C(F)(F)C(F)(F)F	-2.75
in Fc1c(F)c(F)c(F)c(F)c1F	-4.93
in Fc1ccccc1	-5.16
in ICI	-4.89
in Ic1ccccc1	-4.94
in NC=O	-4.8
in Nc1ccccc1	-5.65
in O	-5.06
in O=C1CCCCC1	-4.98
in O=C1CCCO1	-5.07
in O=CN1CCOCC1	-4.73
in OCCO	-4.29
in OCCOCCOCCO	-3.88
in OCc1ccccc1	-5.42
in S=C=S	-4.62
in [2H]O[2H]	-5.02
in c1ccc2ncccc2c1	-4.87
in c1ccc(COCc2ccccc2)cc1	-4.77
in c1ccccc1	-5.16
in c1ccncc1	-5.16

COC(=O)c1ccc(I)cc1
Conditions	solvation free energy, 298 K [kcal/mol]
in CN(C)C=O	-10.7
in O	-5.09

CC1=CCC(C(C)C)C=C1 (stereo unspecified)
Conditions	solvation free energy, 298 K [kcal/mol]
in O	0.2

CC(C)C(=O)C(C)C
Conditions	solvation free energy, 298 K [kcal/mol]
in O	-2.56

C=CC1CC=CCC1 (stereo unspecified)
Conditions	solvation free energy, 298 K [kcal/mol]
in CCCCCCCCCCCCCCCC	-4.94
in COCCO	-4.42
in CS(C)=O	-3.97
in O	0.36

O=C(O)c1ccc(Br)cc1
Conditions	solvation free energy, 298 K [kcal/mol]
in CN(C)C=O	-12.3
in O	-6.67

CC(C)=NO
Conditions	solvation free energy, 298 K [kcal/mol]
in CCCCCC	-3.74

c1ccc2ncccc2c1
Conditions	solvation free energy, 298 K [kcal/mol]
in CC(C)CC(C)(C)C	-7.14
in O	-5.72

CC(C)=CCCC(C)CCOC=O (stereo unspecified)
Conditions	solvation free energy, 298 K [kcal/mol]
in O	-3.08

Clc1ccc(Cl)c(-c2ccccc2Cl)c1
Conditions	solvation free energy, 298 K [kcal/mol]
in CCCCCCCCC=CCCCCCCCC(=O)OCC(COC(=O)CCCCCCCC=CCCCCCCCC)OC(=O)CCCCCCCC=CCCCCCCCC	-9.75
in O	-2.37

CCCC
Conditions	solvation free energy, 298 K [kcal/mol]
in C1CCC2CCCCC2C1	-2.25
in C1COCCO1	-2.13
in CC1COC(=O)O1	-1.19
in CC#N	-1.49
in CC(=O)N(C)C	-1.75
in CC(C)(C)O	-2.07
in CC(C)=O	-2.13
in CC(C)CCO	-2.02
in CC(C)CO	-2.03
in CC(C)O	-2.03
in CC(CC(C)(C)C)CC(C)(C)CC(C)(C)C	-2.97
in CCC(C)(C)O	-2.16
in CCC(C)=O	-2.31
in CCC(C)CO	-2.03
in CCC(O)CC	-2.07
in CCCC(C)O	-2.03
in CCCCC	-2.61
in CCCCCC	-2.55
in CCCCCCC	-2.54
in CCCCCCCC	-2.49
in CCCCCCCCC	-2.43
in CCCCCCCCCC	-2.43
in CCCCCCCCCCCC	-2.32
in CCCCCCCCCCCCC	-2.31
in CCCCCCCCCCCCCC	-2.23
in CCCCCCCCCCCCCCC	-2.24
in CCCCCCCCCCCCCCCC	-2.21
in CCCCCCCCO	-2.09
in CCCCCCCO	-1.96
in CCCCCO	-2.03
in CCCCO	-1.87
in CCCCOCCCC	-2.44
in CCCO	-1.98
in CCO	-1.91
in CN1CCCC1=O	-1.56
in CN(C)C=O	-1.47
in CN(C)P(=O)(N(C)C)N(C)C	-1.85
in CO	-1.73
in COC(C)=O	-1.95
in COCCOCCO	-1.36
in COCCOCCOC	-1.89
in COCCOCCOCCOC	-1.64
in COCCOCCOCCOCCOC	-1.62
in CS(C)=O	-0.99
in Cc1ccc(C)cc1	-2.33
in Cc1cccc(C)c1	-2.34
in Cc1ccccc1C	-2.31
in ClC(Cl)(Cl)Cl	-2.67
in Clc1ccccc1	-2.32
in Ic1ccccc1	-2.05
in N#Cc1ccccc1	-1.93
in NC=O	-0.12
in Nc1ccccc1	-1.4
in O	2.07
in O=CN1CCOCC1	-0.91
in OC1CCCCC1	-1.8
in OCCCOCCCO	-1.24
in OCCO	-0.29
in OCc1ccccc1	-1.51
in c1ccccc1	-2.39

Oc1ccc(-c2ccccc2)cc1
Conditions	solvation free energy, 298 K [kcal/mol]
in CC(C)CC(C)(C)C	-9.58
in CCCCOCCCC	-12.8
in O	-8.89

CCNc1nc(NC(C)C)nc(OC)n1
Conditions	solvation free energy, 298 K [kcal/mol]
in O	-10.2

CCCCC=O
Conditions	solvation free energy, 298 K [kcal/mol]
in CC(C)CC(C)(C)C	-4.24
in CCCCCCCC	-3.97
in CN1CCCC1=O	-4.67
in CO	-4.87
in NC=O	-3.77
in O	-3.01
in O=CN1CCOCC1	-4.49
in [2H]O[2H]	-2.89

Cc1ccc(Br)cc1
Conditions	solvation free energy, 298 K [kcal/mol]
in O	-1.39

CCOCCOC(=O)c1ccccc1C(=O)OCCOCC
Conditions	solvation free energy, 298 K [kcal/mol]
in O	-13.4
